In patent publication US20090062294A1, “HETEROARYL-SUBSTITUTED UREA MODULATORS OF FATTY ACID AMIDE HYDROLASE” (priority 2007, published 2009):
Counter-ions that a name gives are not always drawn.

Key:
FAAH = molecular target: T1, FAAH (Homo sapiens, UniProt O00519); assay: Assay Method 1: FAAH assay, 3H-anandamide hydrolysis in homogenate of T84 cells or SK-N-MC cells transfected with human FAAH; format: biochemical; settings: average of results, > = solubility limit or highest concentration tested
T1 sequence (O00519 1-579): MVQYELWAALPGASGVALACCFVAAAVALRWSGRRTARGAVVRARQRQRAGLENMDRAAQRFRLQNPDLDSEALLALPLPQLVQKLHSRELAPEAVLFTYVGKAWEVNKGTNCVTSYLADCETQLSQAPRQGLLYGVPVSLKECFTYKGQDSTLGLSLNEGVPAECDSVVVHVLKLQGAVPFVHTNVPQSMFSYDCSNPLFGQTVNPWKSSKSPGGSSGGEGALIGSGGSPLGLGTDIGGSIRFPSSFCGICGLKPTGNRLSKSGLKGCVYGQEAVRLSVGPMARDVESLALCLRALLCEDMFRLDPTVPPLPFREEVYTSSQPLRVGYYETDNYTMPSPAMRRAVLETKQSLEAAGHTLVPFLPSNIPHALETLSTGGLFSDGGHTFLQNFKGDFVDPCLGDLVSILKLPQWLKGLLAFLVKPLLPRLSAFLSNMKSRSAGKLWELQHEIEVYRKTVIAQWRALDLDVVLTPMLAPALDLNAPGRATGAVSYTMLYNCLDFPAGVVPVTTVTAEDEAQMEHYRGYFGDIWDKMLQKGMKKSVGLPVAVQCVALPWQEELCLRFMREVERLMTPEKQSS
Outline: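 Hydrolysis of ^3H-anandamide (80 nM final, added last) was measured over 1 h at rt, using test compound with homogenate of T84 cells or human FAAH-transfected SK-N-MC cells. The homogenization buffer was 125 mM Tris, 1 mM EDTA, 0.02% Triton X-100, pH 9. Unbound labelled ethanolamine was passed through charcoal filters and scintillation-counted.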

rat FAAH = molecular target: T2, rat FAAH (Rattus norvegicus, UniProt P97612); assay: Assay Method 2: FAAH assay, 3H-anandamide hydrolysis in homogenate of SK-N-MC cells transfected with rat FAAH; format: biochemical; settings: average of results, > = solubility limit or highest concentration tested
T2 sequence (P97612 1-579): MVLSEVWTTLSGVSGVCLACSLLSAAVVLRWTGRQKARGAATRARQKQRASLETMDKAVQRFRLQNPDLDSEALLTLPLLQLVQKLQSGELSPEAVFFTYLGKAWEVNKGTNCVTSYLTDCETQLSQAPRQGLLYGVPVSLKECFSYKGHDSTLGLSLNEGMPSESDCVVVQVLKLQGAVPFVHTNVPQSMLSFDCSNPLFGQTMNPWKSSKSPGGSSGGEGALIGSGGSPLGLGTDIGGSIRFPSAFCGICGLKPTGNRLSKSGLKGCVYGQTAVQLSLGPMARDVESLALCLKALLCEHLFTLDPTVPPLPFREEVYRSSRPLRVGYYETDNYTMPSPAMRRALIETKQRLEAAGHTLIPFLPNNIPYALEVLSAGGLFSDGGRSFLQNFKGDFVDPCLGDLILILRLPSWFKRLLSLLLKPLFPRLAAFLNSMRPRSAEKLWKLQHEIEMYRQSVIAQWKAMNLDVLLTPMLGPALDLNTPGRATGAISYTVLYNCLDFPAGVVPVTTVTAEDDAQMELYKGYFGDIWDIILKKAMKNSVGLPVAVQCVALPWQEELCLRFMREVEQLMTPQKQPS
Outline: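 Read-out is scintillation counting of [3H]-ethanolamine passing through activated charcoal, after 1 h at rt with 80 nM final [3H]-AEA. Enzyme source: lysate of G418-selected SK-N-MC clones expressing rat FAAH, homogenized in Tris/EDTA/glycerol/0.02% Triton buffer, pH 9.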

Compound | IC50 (FAAH) | IC50 (rat FAAH)
O=C(Nc1ccon1)N1CCN(Cc2cc3ccccc3o2)CC1 [Example 138, 4-(1-Benzofuran-2-ylmethyl)-N-isoxazol-3-ylpiperazine-1-carboxamide] | 5000 nM | > 10000 nM
O=C(Nc1noc2ccccc12)N1CCN(Cc2cccc(C#Cc3ccc(Cl)c(Cl)c3)c2)CC1 [Example 75, N-1,2-Benzisoxazol-3-yl-4-{3-[(3,4-dichlorophenyl)ethynyl]-benzyl}-piperazine-1-carboxamide] | 123 nM | 110 nM
N#CCc1ccccc1C#Cc1cccc(CN2CCN(C(=O)Nc3noc4ccccc34)CC2)c1 [Example 92, N-1,2-Benzisoxazol-3-yl-4-(3-{[2-(cyanomethyl)phenyl]ethynyl}-benzyl)piperazine-1-carboxamide] | 27 nM | 262 nM
O=C(Nc1ccon1)N1CCN(Cc2cccc(Oc3cccc(Br)c3)c2)CC1 [Example 157, 4-[3-(3-Bromophenoxy)benzyl]-N-isoxazol-3-ylpiperazine-1-carboxamide] | 80 nM | 360 nM
O=C(Nc1noc2ccccc12)N1CCN(Cc2cccc(Oc3ccc(OC(F)(F)F)cc3)c2)CC1 [Example 30, 4-[3-(4-Trifluoromethoxy-phenoxy)-benzyl]-piperazine-1-carboxylic acid benzo[d]isoxazol-3-ylamide trifluoroacetic acid salt] | 0.1 nM | 14 nM
N#Cc1cccc(C#Cc2cccc(CN3CCN(C(=O)Nc4noc5ccccc45)CC3)c2)c1 [Example 88, N-1,2-Benzisoxazol-3-yl-4-{3-[(3-cyanophenyl)ethynyl]benzyl}piperazine-1-carboxamide] | 15 nM | 65 nM
O=C(Nc1noc2ccccc12)N1CCN(Cc2ccc(Cl)c(Cl)c2)CC1 [Example 111, N-1,2-Benzisoxazol-3-yl-4-(3,4-dichlorobenzyl)piperazine-1-carboxamide] | 35 nM | 40 nM
O=C(Nc1noc2ccccc12)N1CCN(Cc2ccc3ccccc3c2)CC1 [Example 123, 4-Naphthalen-2-ylmethyl-piperazine-1-carboxylic acid benzo[d]isoxazol-3-ylamide] | 20 nM | 40 nM
O=C(Nc1cnccn1)N1CCN(Cc2cccc(Oc3ccc4ccccc4c3)c2)CC1 [Example 228, 4-[3-(Naphthalen-2-yloxy)-benzyl]-piperazine-1-carboxylic acid pyrazin-2-ylamide] | 30 nM | 80 nM
O=C(Nc1cnccn1)N1CCN(Cc2cc3ccccc3s2)CC1 [Example 218, 4-(1-Benzothiophen-2-ylmethyl)-N-pyrazin-2-ylpiperazine-1-carboxamide] | 170 nM | 700 nM
N#Cc1c(F)cccc1C#Cc1cccc(CN2CCN(C(=O)Nc3noc4ccccc34)CC2)c1 [Example 91, N-1,2-Benzisoxazol-3-yl-4-{3-[(2-cyano-3-fluorophenyl)ethynyl]-benzyl}piperazine-1-carboxamide] | 30 nM | 21 nM
O=C(Nc1noc2ccccc12)N1CCN(Cc2cccc(Oc3cccc(C(F)(F)F)c3)c2)CC1 [Example 51, 4-[3-(3-Trifluoromethyl-phenoxy)-benzyl]-piperazine-1-carboxylic acid benzo[d]isoxazol-3-ylamide trifluoroacetic acid salt] | 28 nM | 29 nM

More lines, in order of falling IC50 (FAAH), values ahead:

IC50 (FAAH) | IC50 (rat FAAH) | Compound
3000 nM | > 10000 nM | O=C(Nc1cnccn1)N1CCN(Cc2ccc3c(c2)OCO3)CC1 [Example 211, 4-(1,3-Benzodioxol-5-ylmethyl)-N-pyrazin-2-ylpiperazine-1-carboxamide]
2000 nM | 450 nM | O=C(Nc1nnn[nH]1)N1CCN(Cc2ccc3ccccc3c2)CC1 [Example 176, 4-(Naphthalen-2-ylmethyl)-N-1H-tetrazol-5-ylpiperazine-1-carboxamide]
400 nM | 5300 nM | O=C(Nc1cnccn1)N1CCN(Cc2cccc(Oc3ccccc3)c2)CC1 [Example 227, 4-(3-Phenoxy-benzyl)-piperazine-1-carboxylic acid pyrazin-2-ylamide]
327 nM | 6000 nM | CCn1nccc1NC(=O)N1CCN(Cc2cccc(Oc3ccc(Cl)cc3)c2)CC1 [Example 193, 4-[3-(4-Chloro-phenoxy)-benzyl]-piperazine-1-carboxylic acid (2-ethyl-2H-pyrazol-3-yl)-amide trifluoroacetic acid salt]
80 nM | 20 nM | O=C(Nc1nn[nH]n1)N1CCN(Cc2cccc(Oc3ccc(OCC(F)(F)F)cc3)c2)CC1 [Example 188, N-2H-Tetrazol-5-yl-4-{3-[4-(2,2,2-trifluoroethoxy)phenoxy]benzyl}-piperazine-1-carboxamide]
50 nM | 870 nM | O=C(Nc1ccon1)N1CCN(Cc2cccc(Oc3ccc4c(c3)OC(F)(F)O4)c2)CC1 [Example 141, 4-{3-[(2,2-Difluoro-1,3-benzodioxol-5-yl)oxy]benzyl}-N-isoxazol-3-ylpiperazine-1-carboxamide]
37 nM | 690 nM | COc1ccc(NC(=O)N2CCN(Cc3cccc(Oc4ccc(Cl)cc4)c3)CC2)nn1 [Example 104, 4-[3-(4-Chlorophenoxy)benzyl]-N-(6-methoxypyridazin-3-yl)piperazine-1-carboxamide]
22 nM | 300 nM | N#Cc1ccccc1COc1cccc(CN2CCN(C(=O)Nc3noc4ccccc34)CC2)c1 [Example 98, 4-[3-(2-Cyano-benzyloxy)-benzyl]-piperazine-1-carboxylic acid benzo[d]isoxazol-3-ylamide]
16 nM | 295 nM | O=C(Nc1noc2ccccc12)N1CCN(Cc2cccc(C#Cc3cc(Cl)ccc3Cl)c2)CC1 [Example 84, N-1,2-Benzisoxazol-3-yl-4-{3-[(2,5-dichlorophenyl)ethynyl]benzyl}-piperazine-1-carboxamide]
16 nM | 315 nM | C#Cc1cccc(CN2CCN(C(=O)Nc3noc4ccccc34)CC2)c1 [Example 68, 4-(3-Ethynyl-benzyl)-piperazine-1-carboxylic acid benzo[d]isoxazol-3-ylamide]
14 nM | 32 nM | O=C(Nc1noc2ccccc12)N1CCN(Cc2cccc(Oc3ccc(C(F)(F)F)c(Cl)c3)c2)CC1 [Example 204, 4-[3-(3-Chloro-4-trifluoromethyl-phenoxy)-benzyl]-piperazine-1-carboxylic acid benzo[d]isoxazol-3-ylamide trifluoroacetic acid salt]
13 nM | 50 nM | O=C(Nc1noc2ccccc12)N1CCN(Cc2cccc(C#CC3CCCC3)c2)CC1 [Example 71, N-1,2-Benzisoxazol-3-yl-4-[3-(cyclopentylethynyl)benzyl]-piperazine-1-carboxamide]
10 nM | 140 nM | O=C(Nc1cnccn1)N1CCN(Cc2cccc(Oc3ccc(OC(F)(F)F)cc3)c2)CC1 [Example 233, N-Pyrazin-2-yl-4-{3-[4-(trifluoromethoxy)phenoxy]benzyl}piperazine-1-carboxamide]
